Measured values: paper PMC11379592 (BBA Advances, 2024)

Experiments:
[1] = plasma stability assay, rat plasma; type: in vitro ADME; settings: 37 °C, pH 7.4, 0-120 min
[2] = plasma stability assay, human plasma; type: in vitro ADME; settings: pH 7.4
mouse sEH = target: T1, mouse sEH (Mus musculus, UniProt P34914); assay: mouse sEH inhibition assay; type: biochemical
T1 sequence (P34914 1-554): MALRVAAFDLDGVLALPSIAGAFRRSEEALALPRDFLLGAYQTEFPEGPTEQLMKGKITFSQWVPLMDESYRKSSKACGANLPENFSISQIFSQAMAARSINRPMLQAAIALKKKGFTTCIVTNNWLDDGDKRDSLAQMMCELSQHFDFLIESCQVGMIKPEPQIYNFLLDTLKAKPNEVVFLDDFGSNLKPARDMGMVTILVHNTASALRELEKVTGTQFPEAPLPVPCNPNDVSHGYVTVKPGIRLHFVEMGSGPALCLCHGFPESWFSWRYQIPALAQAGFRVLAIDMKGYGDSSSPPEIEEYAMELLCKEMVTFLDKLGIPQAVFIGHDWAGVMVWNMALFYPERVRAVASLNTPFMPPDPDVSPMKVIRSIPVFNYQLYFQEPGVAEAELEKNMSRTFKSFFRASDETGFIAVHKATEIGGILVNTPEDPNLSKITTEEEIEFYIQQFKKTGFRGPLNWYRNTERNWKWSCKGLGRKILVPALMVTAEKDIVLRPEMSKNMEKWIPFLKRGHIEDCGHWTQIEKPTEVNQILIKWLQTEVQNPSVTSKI

[3] = tested on: formalin-induced orofacial pain in female rats; settings: doses ranging from 0.5 to 5 mg/kg; cited from earlier work

Row | Half-life ([1]; 5 μM) | half-life at 5 μM ([1]; rat, plasma, pH 7.4, Half-life) | half-life at 5 μM [2] | activity in mouse sEH inhibition assay (in words) (mouse sEH) | SMILES | effect on formalin-induced orofacial pain [3]
1 | 31.1 min | ~30 min | 410 min | weak inhibitor | Cc1ccc(-c2csc(-c3ccc(NC(=O)C4CCN(S(=O)(=O)c5ccccc5Cl)CC4)cc3)n2)cc1 [SW-17, 1-((2-chlorophenyl)sulfonyl)-N-(4-(4-(p-tolyl)thiazol-2-yl)phenyl)piperidine-4-carboxamide] | 
2 |  |  |  |  | CNS(=O)(=O)Cc1ccc2[nH]cc(CCN(C)C)c2c1 [sumatriptan] | inhibit formalin-induced orofacial pain
